Source: publication PMC9098913, “In vitro reconstitution of Escherichia coli divisome activation” (Nature Communications, 2022)

System: FtsA self-interaction
Test: FRET self-interaction of His-tagged FtsAs (and His-SUMO control) on Tris-NTA membranes
Type: binding, E. coli
Experimental: To study colocalization of His-tagged variants of FtsA, 0.5–1 µM of Cy5 labelled His-tagged FtsAs were added to the chamber, incubated for 20 min and washed 6x with reaction buffer. […] To control the density of membrane-bound FtsA, SUVs without and with Tris-NTA lipids were mixed to obtain the respective Tris-NTA concentrations. To perform FRET/FRAP experiments, equimolar concentrations of Cy3 and Cy5 labelled His-tagged FtsAs (total 0.5–1 µM) or His-SUMO-Cys were added to a chamber and treated as above. […] FRAP experiments were performed as described before.
Bleaching the acceptor dye leads to an increase in the donor intensity, which can be used to quantify the Foerster Resonance energy transfer (FRET)[48]. FRET efficiency was quantified with E%=Ipost/Ipost+Ipre⋅100 , where Ipost is the intensity of the […] and Ipre is the […]. […] To extract the contribution of both processes, we adjusted a routine recently published by Gerganova et al.[33]. In short, the code provides the contribution of both modes of recovery by analysing the shape of the fluorescence recovery profile. […] Contribution of diffusion leads to a change of the slope of the outer borders of the bleached region (S4h right). Thus, by measuring the change of the slope of the border recovery, diffusion and simple on/off binding can be distinguished. We developed “FRAPdiff”, a graphical user interface, which uses the original fit routine by David Rutkowski. It can be used directly on.tiff movies with annotated bleach regions as ImageJ ROIs. In addition, we added optional bleach correction, user selectable projection axis (x or y), and optional mirroring of the recovery profiles, if bleaching was not symmetric. The original fit routine for estimating the recovery and diffusion dynamics can be found at https://github.com/davidmrutkowski/1DReflectingDiffusion. FRAPdiff is available at 10.5281/zenodo.6400639[49] under the GPLv3 open-source license.

Substance: FtsA-His6: FtsA WT (1-405) with amphipathic helix replaced by C-terminal His-tag
- FRET efficiency (0.1% Tris NTA, + FtsZ; Exp1): 3.78%
- FRET efficiency (0.1% Tris NTA, + FtsZ; Exp2): 0.99%
- FRET efficiency (0.1% Tris NTA, + FtsZ; mean, n = 2): 2.39%
- FRET efficiency (0.1% Tris NTA, without FtsZ; Exp1): 3.14%
- FRET efficiency (0.1% Tris NTA, without FtsZ; Exp2): 0.59%
- FRET efficiency (0.1% Tris NTA, without FtsZ; mean, n = 2): 1.87%
- FRET efficiency (0.4% Tris NTA; + FtsZ; Exp1): 6.34%
- FRET efficiency (0.4% Tris NTA; + FtsZ; Exp2): 13.91%
- FRET efficiency (0.4% Tris NTA; + FtsZ; Mean, n = 2): 10.12%
- FRET efficiency (0.4% Tris NTA; without FtsZ; Exp1): 8.25%
- FRET efficiency (0.4% Tris NTA; without FtsZ; Exp2): 10.75%
- FRET efficiency (0.4% Tris NTA; without FtsZ; Mean, n = 2): 9.50%
- FRET efficiency (0.6% Tris NTA; + FtsZ; Exp1): 12.72%
- FRET efficiency (0.6% Tris NTA; + FtsZ; Exp2): 16.89%
- FRET efficiency (0.6% Tris NTA; + FtsZ; Exp3): 21.31%
- FRET efficiency (0.6% Tris NTA; + FtsZ; Mean, n = 3): 16.97%
- FRET efficiency (0.6% Tris NTA; without FtsZ; Exp1): 13.98%
- FRET efficiency (0.6% Tris NTA; without FtsZ; Exp2): 15.14%
- FRET efficiency (0.6% Tris NTA; without FtsZ; Exp3): 19.21%
- FRET efficiency (0.6% Tris NTA; without FtsZ; Mean, n = 3 (His6-SUMO n = 2)): 16.11%
- FRET efficiency (0.8% Tris NTA; + FtsZ; Exp1): 13.61%
- FRET efficiency (0.8% Tris NTA; + FtsZ; Exp2): 19.13%
- FRET efficiency (0.8% Tris NTA; + FtsZ; Exp3): 15.44%
- FRET efficiency (0.8% Tris NTA; + FtsZ; Mean, n = 3): 16.06%
- FRET efficiency (0.8% Tris NTA; without FtsZ; Exp1): 14.15%
- FRET efficiency (0.8% Tris NTA; without FtsZ; Exp2): 18.41%
- FRET efficiency (0.8% Tris NTA; without FtsZ; Exp3): 13.88%
- FRET efficiency (0.8% Tris NTA; without FtsZ; Mean, n = 3 (His6-SUMO n = 2)): 15.48%
- FRET efficiency (1% Tris NTA; + FtsZ; Exp1): 18.34%
- FRET efficiency (1% Tris NTA; + FtsZ; Exp2): 21.19%
- FRET efficiency (1% Tris NTA; + FtsZ; Exp3): 19.01%
- FRET efficiency (1% Tris NTA; + FtsZ; Mean, n = 3 (R286W-His6 n = 4)): 19.51%
- FRET efficiency (1% Tris NTA; without FtsZ; Exp1): 16.93%
- FRET efficiency (1% Tris NTA; without FtsZ; Exp2): 19.88%
- FRET efficiency (1% Tris NTA; without FtsZ; Exp3): 16.24%
- FRET efficiency (1% Tris NTA; without FtsZ; Mean, n = 3 (R286W-His6 n = 4)): 17.68%
- FRET efficiency (2% Tris NTA; + FtsZ; Exp1): 32.05%
- FRET efficiency (2% Tris NTA; + FtsZ; Exp2): 31.95%
- FRET efficiency (2% Tris NTA; + FtsZ; Mean, n = 2): 32.00%
- FRET efficiency (2% Tris NTA; without FtsZ; Exp1): 32.49%
- FRET efficiency (2% Tris NTA; without FtsZ; Exp2): 23.34%
- FRET efficiency (2% Tris NTA; without FtsZ; Mean, n = 2): 27.92%
- FRET efficiency (Tris 0.40 %, + FtsZ; mean): 10.12%
- FRET efficiency (Tris 0.40 %, without FtsZ; mean): 9.50%
- FRET efficiency (Tris 0.60 %, + FtsZ; mean): 16.97%
- FRET efficiency (Tris 0.60 %, without FtsZ; mean): 16.11%
- FRET efficiency (Tris 0.80 %, + FtsZ; mean): 16.06%
- FRET efficiency (Tris 0.80 %, without FtsZ; mean): 15.48%
- FRET efficiency (Tris 1.00 %, + FtsZ; mean): 19.51%
- FRET efficiency (Tris 1.00 %, without FtsZ; mean): 17.68%
- FRET efficiency (Tris 2.00 %, + FtsZ; mean): 32.00%
- FRET efficiency (Tris 2.00 %, without FtsZ; mean): 27.92%
- FRET efficiency (Tris […], + FtsZ; mean): 28.93%
- FRET efficiency (Tris […], without FtsZ; mean): 25.95%
- FRET efficiency ([…] Tris NTA, + FtsZ; Exp1): 2.38%
- FRET efficiency ([…] Tris NTA, + FtsZ; Exp2): 10.40%
- FRET efficiency ([…] Tris NTA, + FtsZ; mean, n = 2): 6.39%
- FRET efficiency ([…] Tris NTA, without FtsZ; Exp1): 3.80%
- FRET efficiency ([…] Tris NTA, without FtsZ; Exp2): 9.45%
- FRET efficiency ([…] Tris NTA, without FtsZ; mean, n = 2; listed as FtsA WT-His6): 6.62%
- FRET efficiency ([…] Tris NTA, without FtsZ; mean, n = 2; listed as WT-His6): 6.63%
- FRET efficiency ([…] Tris NTA; + FtsZ; Exp1): 34.73%
- FRET efficiency ([…] Tris NTA; + FtsZ; Exp2): 27.23%
- FRET efficiency ([…] Tris NTA; + FtsZ; Exp3): 24.81%
- FRET efficiency ([…] Tris NTA; + FtsZ; Mean, n = 3): 28.93%
- FRET efficiency ([…] Tris NTA; without FtsZ; Exp1): 28.26%
- FRET efficiency ([…] Tris NTA; without FtsZ; Exp2): 26.94%
- FRET efficiency ([…] Tris NTA; without FtsZ; Exp3): 22.66%
- FRET efficiency ([…] Tris NTA; without FtsZ; Mean, n = 3): 25.95%
- FRET efficiency ([…] Tris-NTA; + N (FtsNcyto); mean): 26.95%
- FRET efficiency ([…] Tris-NTA; + N/Z (FtsNcyto and FtsZ); mean): 24.12%
- FRET efficiency ([…] Tris-NTA; + N/Z; Exp. 1): 22.20%
- FRET efficiency ([…] Tris-NTA; + N/Z; Exp. 2): 29.86%
- FRET efficiency ([…] Tris-NTA; + N/Z; Exp. 3): 20.31%
- FRET efficiency ([…] Tris-NTA; + N; Exp. 1): 28.94%
- FRET efficiency ([…] Tris-NTA; + N; Exp. 2): 24.96%
- FRET efficiency ([…] Tris-NTA; + N; Exp. 3): 26.96%
- FRET efficiency ([…] Tris-NTA; + Z (FtsZ); mean): 27.70%
- FRET efficiency ([…] Tris-NTA; + Z; Exp. 1): 34.73%
- FRET efficiency ([…] Tris-NTA; + Z; Exp. 2): 27.23%
- FRET efficiency ([…] Tris-NTA; + Z; Exp. 3): 24.81%
- FRET efficiency ([…] Tris-NTA; + Z; Exp. 4): 24.02%
- FRET efficiency ([…] Tris-NTA; alone; Exp. 1): 28.26%
- FRET efficiency ([…] Tris-NTA; alone; Exp. 2): 26.94%
- FRET efficiency ([…] Tris-NTA; alone; Exp. 3): 22.66%
- FRET efficiency ([…] Tris-NTA; alone; Exp. 4): 20.84%
- FRET efficiency ([…] Tris-NTA; alone; mean): 24.68%
